From patent EP0086092A2, “Antifungal compositions” (priority 1982, dated 1983)

Columns and labels:
C. albicans = experiment: topical treatment of C. albicans skin infections of mice; type: in vivo; conditions: female CF-1 mice, shaved back skin infected with clinical isolates; topical treatment for 5 days; aculeacin A at its MIC for each isolate; compared with aculeacin A itself, Lotrimin cream and control
Description: Clinical isolates of C. albicans were grown in Sabouarud dextrose agar and subcultured into mouse serum and incubated at 35 C. Female mice (CF-1, 4 to 6 weeks old) were shaved on the back (2cm ^2 area).
The shaved area was cleaned with 70%'alcohol and scrubbed with a wire brush. This area was then painted with the C. albicans in mouse serum as noted above (10^5-10^6 CFu/ml.) and after drying this area was covered with sterile gauze and the infection was allowed to develop over two days. After the development of the infection, the mice were treated with aculeacin A/oleic acid composition, aculeacin A and Lotrimin^R (Clotrimazole-Schering) for 5 days. The minimum inhibitory concentration (MIC) for aculeacin A for each clinical isolate of C. albicans was determined and that amount was employed in each experiment. Commercially available Lotrimin^R cream was utilized in each experiment. […] Note that bacterial contamination was ruled out by microscopic examination. • [formula] where 4 - the most severe infection - zone of inoculation highly erythrematous with culture mainly consisting of C. albicans. • 3 - severe infection with some healing • 2 - less severe infection • 1 - very little infection • 0 - no infection.

Candida albicans B 311 = experiment: disc diffusion, zone of inhibition on seeded agar plates; type: cell-based; conditions: 16-18 h; for Zone Size / Zone Size B 311: 28-37°C; for Zone Size Sabouarud Agar / Zone Size YNB agar: Table II, 37°C; for Zone Size YNB agar: lysine; for Zone Size B 311: Table IV-a
Description: The antifungal activity of aculeacin A and the compositions of aculeacin A and fatty acids was measured by disc diffusion.
The effects of a number of fatty acids on the antifungal activity of aculeacin A were determined by utilizing seeded plates of Candida albicans B 311 in yeast nitrogen base (YNB) agar (Difco) with glucose as the carbon source. A composition containing one unit by weight of aculeacin A and 5 units of fatty acid or the sodium salt thereof was spotted on the seeded plates and the size of the zone of inhibition after 16-18 hours incubation at 28-37 °C was measured.
Additional fatty acids were tested to determine , if they increased the intrinsic activity of aculeacin A against C. albicans B 311 utilizing seeded plates of YNB agar (Difco) with lysine as the carbon source and seeded plates of Sabouarud dextrose agar (Difco). Compositions containg one µg of aculeacin A and various amounts of the fatty acid was spotted on the seeded plates and the size of the zone of inhibition after 16-18 hours incubation at 37 °C was measured.
The antifungal effects of compositions containing a single amount of oleic acid as the sodium salt while varying the amounts of aculeacin A were determined by utilizing seeded plates of Candida albicans B 311 in Sabouarud dextrose agar and measuring the zone of inhibition after 16-18 hours incubation at 28-37°C.
(§1) The antifungal effects of compositions containing a single amount of aculeacin A while varying the amounts. of oleic acid as the sodium salt were determined by utilizing seeded plates of Candida albicans strains B 311, BC 759 and B 3153A and measuring the zone of inhibition after 16-18 hours at 28-37°C. This test was also performed with linoleic acid and linolenic acid.
(§2) The seeded plates of Candida albicans strains B 311, BC 759, and B 3153A were prepared by inoculating 50 ml of trypticase soy broth (BBL) with one ml of the preserved frozen culture and incubating the inoculum at 37°C for 7 hours on a rotary shaker. Two milliliters of this culture were used to inoculate one liter of Sabouarud dextrose agar (Difco) at 50°C and 15 milliliters of the resultant medium poured into 150 mm petri-dishes.

Candida albicans B 3153A = experiment: as above; type: cell-based; conditions: Table IV-a, 16-18 h, 28-37°C
Description: (§3) The antifungal activity of aculeacin A and the compositions of aculeacin A and fatty acids was measured by disc diffusion. Potentiation of antifungal activity was examined by three different methods employing: (1) a single concentration of aculeacin A and a single concentration of known fatty acids; '(2) various concentrations of aculeacin A with a single concentration of individual fatty acids; and (3) various concentrations of fatty acids with a single concentration of aculeacin A. The antifungal activities of aculeacin A and the fatty acids were separately checked as controls.
as §1, §2

Candida albicans BC 759 = experiment: as above; type: cell-based; conditions: Table IV-a, 16-18 h, 28-37°C
Description: as §3, §1, §2

[1] = aculeacin A 0.40 µg + oleic acid (as sodium salt) 5 µg
[2] = aculeacin A 0.40 µg + oleic acid (as sodium salt) 10 µg
[3] = aculeacin A 0.40 µg + oleic acid (as sodium salt) 20 µg
[4] = aculeacin A 0.40 µg + oleic acid (as sodium salt) 40 µg
[5] = aculeacin A 0.40 µg + oleic acid (as sodium salt) 78 µg
[6] = aculeacin A 0.40 µg + oleic acid (as sodium salt) 156 µg
[7] = aculeacin A 0.40 µg + oleic acid (as sodium salt) 312 µg
[8] = aculeacin A 0.40 µg + oleic acid (as sodium salt) 625 µg
[9] = aculeacin A 0.40 µg + oleic acid (as sodium salt) 1250 µg

## CCCCCCCC/C=C\CCCCCCCC(=O)O [Oleic Acid]
C. albicans
  reduction in the infection: did not inhibit the infection
Candida albicans B 311; Table I, YNB agar, glucose as carbon source, composition of 1 unit by weight aculeacin A + 5 units fatty acid
  Zone Size: 32 mm
Candida albicans B 311; Sabouarud dextrose agar, aculeacin A 0 µg, fatty acid 250 µg alone
  Zone Size Sabouarud Agar: 0 mm
Candida albicans B 311; Sabouarud dextrose agar, aculeacin A 0 µg, fatty acid 500 µg alone
  Zone Size Sabouarud Agar: 0 mm
Candida albicans B 311; Sabouarud dextrose agar, aculeacin A 0 µg, fatty acid 1000 µg alone
  Zone Size Sabouarud Agar: 0 mm
Candida albicans B 311; Sabouarud dextrose agar, composition of aculeacin A 1 µg + fatty acid 250 µg
  Zone Size Sabouarud Agar: 28 mm
Candida albicans B 311; Sabouarud dextrose agar, composition of aculeacin A 1 µg + fatty acid 500 µg
  Zone Size Sabouarud Agar: 26 mm
Candida albicans B 311; Sabouarud dextrose agar, composition of aculeacin A 1 µg + fatty acid 1000 µg
  Zone Size Sabouarud Agar: 26 mm
Candida albicans B 311; YNB agar, aculeacin A 0 µg, fatty acid 250 µg alone
  Zone Size YNB agar: 0 mm
Candida albicans B 311; YNB agar, aculeacin A 0 µg, fatty acid 500 µg alone
  Zone Size YNB agar: 0 mm
Candida albicans B 311; YNB agar, aculeacin A 0 µg, fatty acid 1000 µg alone
  Zone Size YNB agar: 0 mm
Candida albicans B 311; YNB agar, composition of aculeacin A 1 µg + fatty acid 250 µg
  Zone Size YNB agar: 35 mm
Candida albicans B 311; YNB agar, composition of aculeacin A 1 µg + fatty acid 500 µg
  Zone Size YNB agar: 35 mm
Candida albicans B 311; YNB agar, composition of aculeacin A 1 µg + fatty acid 1000 µg
  Zone Size YNB agar: 35 mm
Candida albicans B 311; Table III, Sabouarud dextrose agar, aculeacin A 0.000 µg, oleic acid (as sodium salt) 12.5 µg alone
  Zone Size: 0 mm
Candida albicans B 311; Table III, Sabouarud dextrose agar, aculeacin A 0.020 µg + oleic acid (as sodium salt) 12.5 µg
  Zone Size: trace
Candida albicans B 311; Table III, Sabouarud dextrose agar, aculeacin A 0.039 µg + oleic acid (as sodium salt) 12.5 µg
  Zone Size: 28 mm
Candida albicans B 311; Table III, Sabouarud dextrose agar, aculeacin A 0.078 µg + oleic acid (as sodium salt) 12.5 µg
  Zone Size: 29 mm
Candida albicans B 311; Table III, Sabouarud dextrose agar, aculeacin A 0.156 µg + oleic acid (as sodium salt) 12.5 µg
  Zone Size: 32 mm
Candida albicans B 311; Table III, Sabouarud dextrose agar, aculeacin A 0.312 µg + oleic acid (as sodium salt) 12.5 µg
  Zone Size: 35 mm
Candida albicans B 311; Table III, Sabouarud dextrose agar, aculeacin A 0.625 µg + oleic acid (as sodium salt) 12.5 µg
  Zone Size: 35 mm
Candida albicans B 311; Table III, Sabouarud dextrose agar, aculeacin A 1.25 µg + oleic acid (as sodium salt) 12.5 µg
  Zone Size: 37 mm
Candida albicans B 311; [1]
  Zone Size B 311: 13 mm
Candida albicans B 311; [2]
  Zone Size B 311: 14 mm
Candida albicans B 311; [3]
  Zone Size B 311: 15 mm
Candida albicans B 311; [4]
  Zone Size B 311: 17 mm
Candida albicans B 311; [5]
  Zone Size B 311: 20 mm
Candida albicans B 311; [6]
  Zone Size B 311: 26 mm
Candida albicans B 311; [7]
  Zone Size B 311: 30 mm
Candida albicans B 311; [8]
  Zone Size B 311: 32 mm
Candida albicans B 311; [9]
  Zone Size B 311: 35 mm
Candida albicans B 3153A; [1]
  Zone Size B 3153-A: 13 mm
Candida albicans B 3153A; [2]
  Zone Size B 3153-A: 15 mm
Candida albicans B 3153A; [3]
  Zone Size B 3153-A: 18 mm
Candida albicans B 3153A; [4]
  Zone Size B 3153-A: 17 mm
Candida albicans B 3153A; [5]
  Zone Size B 3153-A: 18 mm
Candida albicans B 3153A; [6]
  Zone Size B 3153-A: 25 mm
Candida albicans B 3153A; [7]
  Zone Size B 3153-A: 25 mm
Candida albicans B 3153A; [8]
  Zone Size B 3153-A: 28 mm
Candida albicans B 3153A; [9]
  Zone Size B 3153-A: 29 mm
Candida albicans BC 759; [1]
  Zone Size BC 759: 13 mm
Candida albicans BC 759; [2]
  Zone Size BC 759: 15 mm
Candida albicans BC 759; [3]
  Zone Size BC 759: 18 mm
Candida albicans BC 759; [4]
  Zone Size BC 759: 18 mm
Candida albicans BC 759; [5]
  Zone Size BC 759: 20 mm
Candida albicans BC 759; [6]
  Zone Size BC 759: 24 mm
Candida albicans BC 759; [7]
  Zone Size BC 759: 28 mm
Candida albicans BC 759; [8]
  Zone Size BC 759: 29 mm
Candida albicans BC 759; [9]
  Zone Size BC 759: 32 mm
